Source: PMC4364341, “NBD delivery improves the disease phenotype of the golden retriever model of Duchenne muscular dystrophy” (Skeletal Muscle, 2014)

How the values were obtained:
[1] = test system: GRMD dogs; experiment: Joint and pelvic angles, GRMD dogs; type: in vivo, dog; conditions: n = 6
Excerpt: We previously reported that 6-month-old GRMD dogs have abnormally acute (contracted) TTJ angles while positioned in dorsal recumbence for force measurements. Other investigators have subsequently described methods to measure joint angles at maximal flexion and extension, with associated range of motion, in wild type dogs. The method of Jaegger et al.[29] is now utilized to measure pelvic limb tibiotarsal (hock, ankle), stifle (knee), and coxofemoral (hip) joint angles for ongoing natural history and preclinical trials in our laboratory. In each case, dogs were anesthetized (above) and positioned in lateral recumbence. Angles at rest, maximal flexion, and maximal extension were measured. To objectively characterize the cranioventral shift of the pelvis typically seen in GRMD dogs, we also measured the pelvic angle formed by two lines extending cranially from the tuber ischium, one drawn parallel to the lumbar spine and the other extending to the midpoint of the tuber coxae.

[2] = test system: utrn-/-;mdx double knock out (dko) mice; conditions: NBD-treated dko mice; cited from earlier work
Excerpt: Our ability to collectively achieve such a benefit in GRMD dogs, as well as in mdx diaphragm, [9, 13] and dko hearts, supports the pre-clinical efficacy of NBD. Due to interspecies differences among mice, dogs, and humans, it is difficult to say e ...

[3] = NBD group, age 2 months (start of treatment)
[4] = age 6 months, NBD 10 mg/kg IV 3x weekly for 4 months

TALDWSWLQTE [NBD, NBD peptide (…) fused to an Antennapedia protein transduction domain]
Hip (Resting) angle [1, 3]: 103.7 ± 2.94 | Maximum Hip Flexion [1, 3]: 44.67 ± 5.47 ° | Pelvic Angle [1, 3]: 41.00 ± 6.81 ° | TTJ Angle [1, 3]: 157.00 ± 9.80 ° | Hip (Resting) angle [1, 4]: 100.2 ± 6.01^2 | Maximum Hip Flexion [1, 4]: 46.33 ± 3.50^2 ° | Pelvic Angle [1, 4]: 36.83 ± 5.12^2 ° | TTJ Angle [1, 4]: 160.17 ± 8.84 ° | Functional response, dko heart [2]: improved back to wild type
